The source made the active and inactive calls.
Tests used:
[1] = tested on: Streptococcus sp. 'group A'; test: growth inhibition of control SK(-) GAS strain, dose response, counter-screen for streptokinase expression inhibitor project, luminescence, kanamycin, BacTiterGlo, confirmation (AID 1900); assay type: functional, organism-based
[2] = THP-1 cell cytotoxicity, dose response, cytotoxicity control for non-replicating M. tuberculosis project (AID 489025); assay type: functional
[3] = Vero E6 cell cytotoxicity, dose response, cytotoxicity control for non-replicating M. tuberculosis project, secondary assay (AID 492998); assay type: functional, VeroE6; settings: Vero C1008
[4] = cells; assay type: functional
[5] = target: C-C chemokine receptor type 6 (Homo sapiens, UniProt P51684); test: CCR6 receptor antagonists, dose response, cell-based, luminescent beta-arrestin readout (AID 504728); assay type: functional
[6] = target: T1, Streptokinase A (Streptococcus pyogenes serotype M1, UniProt P10520); test: S. pyogenes streptokinase expression inhibitors, potency, dose response, plasminogen activation absorbance, OD405 (AID 1914); assay type: functional, Streptococcus pyogenes M1 GAS;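 note: secreted streptokinase activity via plasminogen activation per viability signal from cell pellet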
T1 sequence (P10520 whole entry): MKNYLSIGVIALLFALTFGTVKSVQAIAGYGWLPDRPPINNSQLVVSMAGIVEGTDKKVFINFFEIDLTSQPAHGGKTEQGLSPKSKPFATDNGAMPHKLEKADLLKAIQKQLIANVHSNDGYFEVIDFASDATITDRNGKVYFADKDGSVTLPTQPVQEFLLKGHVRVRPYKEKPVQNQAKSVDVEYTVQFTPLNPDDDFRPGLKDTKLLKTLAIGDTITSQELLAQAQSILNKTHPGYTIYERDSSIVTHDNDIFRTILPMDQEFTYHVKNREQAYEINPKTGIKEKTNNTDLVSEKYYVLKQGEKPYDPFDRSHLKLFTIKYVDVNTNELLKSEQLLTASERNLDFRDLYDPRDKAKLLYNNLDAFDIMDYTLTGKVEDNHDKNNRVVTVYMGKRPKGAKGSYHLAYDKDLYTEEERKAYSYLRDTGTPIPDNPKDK

[7] = tested on: Streptococcus; test: Group A Streptococcus viability loss, dose response, counter-screen for streptokinase expression inhibitor project, luminescence, BacTiterGlo (AID 1915); assay type: functional, organism-based;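 note: potency for reduction of bacterial viability or growth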
[8] = A Cell Based Secondary Assay to Explore Cytotoxicity in THP-1 Cells of Compounds that Modulate Mycobacterium tuberculosis in Media Containing Glycerol versus Media without Glycerol (2).; assay type: functional
[9] = target: Beta-galactosidase (Escherichia coli, UniProt Q8VNN2); test: beta-galactosidase enzyme inhibitors and activators, dose response, artefact control for CCR6 antagonist project, biochemical, E. coli enzyme, set 3 (AID 504712); assay type: functional
[10] = Vero cell cytotoxicity, cytotoxicity control for M. tuberculosis inhibitor project, purified and synthesized samples, set 3 (AID 504684); assay type: functional
[11] = A Cell Based Secondary Assay to Explore Cytotoxicity in HepG2 Cells of Compounds that Modulate Mycobacterium tuberculosis in Media Containing Glycerol versus Media without Glycerol (2).; assay type: functional
[12] = HepG2 cell cytotoxicity, dose response, cytotoxicity control for non-replicating M. tuberculosis project (AID 489018); assay type: functional; settings: Mycobacterium tuberculosis
[13] = microbe, parasite or virus in culture; assay type: functional; settings: Mycobacterium tuberculosis
[14] = tested on: Vero; test: Vero cell cytotoxicity, cytotoxicity control for flavivirus capping enzyme inhibitors (AID 588742); assay type: functional; settings: Chlorocebus sabaeus
[15] = target: Major prion protein (Homo sapiens, UniProt P04156); assay type: functional, cell-based
[16] = cells
[17] = tested on: Vero; test: cells; assay type: functional; settings: Chlorocebus sabaeus
[18] = target: Bifunctional protein GlmU (Mycobacterium tuberculosis, UniProt P9WMN3); test: Inhibitors of Mycobacterial Glucosamine-1-phosphate acetyl transferase (GlmU). Secondary screen.; parameters: species or system Mycobacterium tuberculosis H37Rv
[19] = target: Genome polyprotein (dengue virus type 2, UniProt P29990); test: Dengue-2 NS5 methyltransferase inhibitors, primary screen, biochemical, confirmation dose response (AID 588689); assay type: functional
[20] = tested on: Vero; test: cells; assay type: functional, cell-based; settings: Chlorocebus sabaeus
[21] = target: Phospholipase D1 (Homo sapiens, UniProt Q13393); test: PLD1 inhibitor potency in cells, dose response (AID 602151); assay type: functional;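 note: cellular PLD1 assay in Calu-1 cells stimulated with PMA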
[22] = target: Phospholipase D2 (Homo sapiens, UniProt O14939); test: PLD2 inhibitor potency in cells, dose response (AID 602147); assay type: functional;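 note: cellular assay in HEK293 cells overexpressing GFP-tagged PLD2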
[23] = target: T2, Orexin receptor type 2 (Homo sapiens, UniProt O43614); test: Counterscreen assay for antagonists of the orexin 1 receptor (OX1R; HCRTR1): Homogeneous Time Resolved Fluorescence (HTRF)-based cell-based dose response assay for antagonists of the orexin 2 receptor (OX2R; HCRTR2), run by assay provider.; assay type: functional
[24] = target: T3, Orexin/Hypocretin receptor type 1 (Homo sapiens, UniProt O43613); test: Homogeneous Time Resolved Fluorescence (HTRF)-based cell-based high throughput dose response assay for antagonists of the orexin 1 receptor (OX1R; HCRTR1). [Related pubchem assays (depositor defined):AID434989, AID435008, AID463079, AID485270, AID492963, AID492964, AID492965, AID493232, AID504717, AID504718]; assay type: functional
[25] = (§1) Counterscreen for antagonists of the orexin 1 receptor (OX1R; HCRTR1): Fluorescence-based cell-based high throughput dose response assay to identify antagonists of the parental CHO cell line. [Related pubchem assays (depositor defined):AID434989, AID435008, AID463079, AID485270, AID492963, AID492964, AID492965, AID493232, AID504699, AID504701]; assay type: functional
[26] = tested on: CHO-K1; test: as §1, with “Homogeneous time resolved fluorescence (HTRF)-based” for “Fluorescence-based”, “cell-based” for “cell-based high throughput”, “CHO-K1” for “CHO”; assay type: functional; settings: Cricetulus griseus;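 note: potency for inhibition of ATP-stimulated IP1 production as antagonists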
[27] = target: T3, Orexin/Hypocretin receptor type 1; test: Fluorescence-based cell-based high throughput dose response assay for antagonists of the orexin 1 receptor (OX1R; HCRTR1). [Related pubchem assays (depositor defined):AID434989, AID435008, AID463079, AID485270, AID492963, AID492964, AID492965, AID493232, AID504717, AID504718]; assay type: functional
[28] = target: T2, Orexin receptor type 2; test: Counterscreen assay for antagonists of the orexin 1 receptor (OX1R; HCRTR1): Fluorescence-based cell-based dose response assay for antagonists of the orexin 2 receptor (OX2R; HCRTR2), run by assay provider.; assay type: functional

In the case of Cc1nn2c(NCc3ccccn3)cc(C(C)C)nc2c1-c1ccccc1, the EC50 [1] is reported as 5.57 µM (active), the CC50 [2] is reported as 9.09 µM (active) and the CC50 [3] is reported as 15.8 µM (active). For the same molecule, the IC50 [4] was 1.51 µM (active), the IC50 [5] was > 66.6 µM (inactive) and the EC50 [6] was 6.95 µM (active). The EC50 [7] was 23.2 µM (active), the CC50 [8] was 4.39 µM (active) and the IC50 [9] was > 66.6 µM (inactive). For the same molecule, the CC50 [10] was 11.1 µM (active), the CC50 [11] was 0.46 µM (active) and the CC50 [12] was 6.6 µM (active). The CC50 [13] was 24.5 µM (active).
For O=c1oc2ccccc2c(O)c1[C@H]1c2ccc(O)cc2Oc2c1c(=O)oc1ccccc21, the CC50 [14] was > 40 µM (active), the IC50 [15] was 9.01 µM (active) and the IC50 [16] was 124 µM (inactive). The CC50 [17] was > 25 µM (active), the IC50 [18] was 117 µM (active) and the IC50 [19] was 80.7 µM (active). The IC50 [20] was > 25 µM (active).
For C[C@@H](CN1CCC(n2c(=O)[nH]c3ccccc32)CC1)NC(=O)c1ccc2ncccc2c1, the IC50 [21] was 0.017 µM (active) and the IC50 [22] was 4.1 µM (active).
With N#CCSc1nc(-c2ccccc2)nc2ccccc12 the IC50 [23] was > 50 µM (inactive), the IC50 [24] was 2.84 µM (active) and the IC50 [25] was > 49.8 µM (inactive). For the same molecule, the IC50 [26] was > 66.3 µM (inactive), the IC50 [27] was > 49.8 µM (inactive) and the IC50 [28] was > 88.8 µM (inactive).

— ChEMBL document CHEMBL1201862, “PubChem BioAssay data set” (2004)
